Test results as given in US20050043319A1, “Molecular target of neurotoxicity” (EXONHIT THERAPEUTICS SA, priority 2001, published 2005).
Like-named read-outs stand apart in the source and are kept apart here.

Tests used:
[1] = tested on: Amyotrophic Lateral Sclerosis (ALS); conditions: ALS patients; cited from earlier work
cortical neurons = assay: Excitotoxicity protection in primary cortical cell cultures (MTT test); format: cell-based, rat; conditions: 6 hour incubation
Procedure: Sixteen-day-old embryos from Wistar rats were removed and the cortex dissected. […] After four days of culture, half of the medium was replaced by minimum essential medium supplemented with 5% horse serum and 2 mM glutamine. On the same day, 10 μM 5-fluoro-2-deoxyuridine, an antimitotic agent, was added. After 7 and 11 days of culture, half of the medium was replaced by conditioned medium composed of MEM supplemented with 5% horse serum and 2 mM glutamine; this medium was passed overnight on a layer of cortical astrocytes before use.
Toxicity was measured with an MTT test.

rat brain granular cells = conditions: for protection of brain granular cells: 6 hour incubation, MTT; for protective effect on neuron survival: neurons cotreated with PDE4 inhibitor, both excitotoxicity inducers (NMDA/serine and kainate), FIGS. 2 to 10
[2] = NMDA/serine treatment (20 μM NMDA + 10 μM D-serine)
[3] = kainate-induced toxicity (50 μM kainate)
[4] = NMDA/serine treatment (100 μM NMDA + 10 μM D-serine)

Structure (SMILES)	improvement in the measures of muscular strength [1]	protective effect on cortical neurons (cortical neurons; [2]) [%]	protective effect on cortical neurons (cortical neurons; [3]) [%]	protection of brain granular cells (rat brain granular cells; [4]) [%]	protection of brain granular cells (rat brain granular cells; [3]) [%]	protective effect on neuron survival (rat brain granular cells)
Nc1nc2ccc(OC(F)(F)F)cc2s1 [Riluzole]	does not provide improvement					
CCOC(=O)c1cnc2c(cnn2CC)c1NN=C(C)C [etazolate]		33	25	60	57	dose-dependent protective effect
CC(=O)CCCCn1c(=O)c2c(ncn2C)n(C)c1=O [pentoxifylline]		50	66	43	33	dose-dependent protective effect
